The record followed here is patent US5684026A, “Aminocyclopentane derivative” (priority 1994, dated 1997).

Data set [1] addresses T1, β-Galactosidase (E. Coli, EC. 3.2.1.23) (Escherichia coli, UniProt P00722).
T1 construct: purchased Sigma; host or cells: E. coli
Put plainly: β-Galactosidase (E. coli) enzyme inhibition assay (o-nitrophenyl β-D-galactopyranoside). The class given is biochemical. The settings on record: pH 7.3, room temperature, 30 minutes; read-out: IC50 (M) β-Galactosidase (E. coli). How it is done:
(§1) By using a 96-well microplate, the absorbance (at 405 nm) of liberated p- or o-nitrophenol was measured with a microplate reader (MPR-4Ai, manufactured by Tosoh Corporation).
(§2) The enzymes employed herein [α-glucosidase (Baker's yeast), β-glucosidase (Almonds), α-galactosidase (E. coli), β-galactosidase (E. coli) and β-galactosidase (Bovine Liver)] were all purchased from Sigma.
(§3) The substrates (p- or o-nitrophenylglycoside) of these enzymes were all purchased from Sigma.
4) β-Galactosidase (E. Coli, EC. 3.2.1.23) [described in G. R. Craven, E. Steers, Jr. and C. B. Anfinsen, J. Biol. Chem., 240, 2468-2477 (1965)]
Into each well were introduced an aqueous solution of a sample (2 μl), a buffer (153 μl), a 20 mM solution of o-nitrophenyl β-D-galactopyranoside in a buffer (25 μl), a 100 mM 2-mercaptoethanol (10 μl) and a (10 μg/ml) enzyme solution in the buffer (10 μl) to give a total volume of 200 μl. After incubating at room temperature (20°-30° C.) for 30 minutes, the absorbance (A405) of o-nitrophenol liberated by this enzyme reaction was measured. To give the blank absorbance (Ablank), the sample (2 μl), the substrate (25 μl), the buffer solution (163 μl) and 2-mercaptoethanol (10 μl) were incubated in the same manner followed by the measurement of the absorbance. To give the control absorbance (Acontrol), on the other hand, water (2 μl), the substrate (25 μl), the buffer solution (153 μl), 2-mercaptoethanol (10 μl) and the enzyme solution (10 μl) were incubated in the same manner followed by the measurement of the absorbance. A 50 mM phosphate buffer solution (pH 7.3, prepared from KH2 PO4 and K2 HPO4, containing 1.3 mM of MgCl2) was employed as the buffer for the enzyme reaction. The IC50 was determined in the same manner as employed in the case of α-glucosidase.

Data set [2] concerns the target β-Glucosidase (Almonds, EC 3.2.1.21). The data set is described as follows: β-Glucosidase enzyme inhibition assay (p-nitrophenyl β-D-glucopyranoside). The class given is biochemical. As to the method:
as §1
(§4) Incubation was carried out at 37° C. by using a natural incubator (Compact NIB-10, manufactured by Iwaki Glass Co., Ltd.).
as §2, §3
2) β-Glucosidase (Almonds, EC 3.2.1.21) [described in A. Kobayashi, Agr. Biol. Chem., 26, 203-207 (1962)]
Into each well were introduced an aqueous solution of a sample (1 μl), a 0.33 mM solution of p-nitrophenyl β-D-glucopyranoside in a buffer (98 μl) and a (0.4 mg/ml) enzyme solution in the buffer (1 μl) to give a total volume of 100 μl. After incubating at 37° C. for 45 minutes, the reaction was ceased by adding a 1M aqueous solution of sodium carbonate (100 μl). Then the absorbance (A405) of p-nitrophenol liberated by this enzyme reaction was measured. To give the blank absorbance (Ablank), the sample (1 μl) and the substrate (99 μl) were incubated in the same manner and an aqueous solution of sodium carbonate (100 μl) was added followed by the measurement of the absorbance. […] As the buffer, a 0.1M acetate buffer solution (pH 5.0, prepared from NaOAc and AcOH) was employed. The IC50 was determined in the same manner as employed in the case of α-glucosidase.

Data set [3] deals with α-Galactosidase (E. Coli, EC. 3.2.1.22). The data set is described as follows: α-Galactosidase enzyme inhibition assay (p-nitrophenyl α-D-galactopyranoside). The class given is biochemical. Particulars: pH 6.5, room temperature, 15 minutes. How it is done:
as §1, §2, §3
3) α-Galactosidase (E. Coli, EC. 3.2.1.22) [described in H. Suzuki, S-C. Li and Y-T. Li, J. Biol. Chem., 245, 781-786 (1970)]
Into each well were introduced an aqueous solution of a sample (1 μl), a buffer (74 μl), a 9.9 mM solution of p-nitrophenyl α-D-galactopyranoside in a buffer (20 μl) and a (50 μg/ml) enzyme solution in the buffer (5 μl) to give a total volume of 100 μl. After incubating the resulting mixture at room temperature (20°-30° C.) for 15 minutes, the reaction was ceased by adding a 0.2M borate buffer solution (pH 9.8, prepared from NaOH and H3 BO3, 100 μl). Then the absorbance (A405) of p-nitrophenol liberated by this enzyme reaction was measured. To give the blank absorbance (Ablank), the sample (1 μl), the substrate (20 μl) and the buffer solution (79 μl) were incubated in the same manner and the 0.2M borate buffer solution (100 μl) was added followed by the measurement of the absorbance. To give the control absorbance ([…]), on the other hand, water (1 μl), the substrate (20 μl), the buffer solution (74 μl) and the enzyme solution (5 μl) were incubated in the same manner and the borate buffer solution (100 μl) was added followed by the measurement of the absorbance. A 0.1M phosphate buffer solution (pH 6.5, prepared from KH2 PO4 and K2 HPO4) was employed as the buffer for the enzyme reaction. The IC50 was determined in the same manner as employed in the case of α-glucosidase.

Another data set concerns B16 melanoma cells. Put plainly: Cytotoxicity, survival ratio by Trypan blue staining. The class given is cell-based. The settings on record: 5-100 μM, 24 hours. As to the method:
After 24 hours, the medium was replaced with Dulbecco-modified Eagle medium containing each sample. The incubation was continued under the same conditions for additional 24 hours. Then the cells were harvested by adding EDTA, washed with PBS and stained with 0.3% Trypan blue solution to thereby determine the survival ratio of the cells.

Data set [4] deals with T2, α-Glucosidase (Baker's yeast, EC 3.2.1.20) (Saccharomyces cerevisiae, UniProt P53341).
T2 construct: purchased Sigma; host or cells: Baker's yeast
Put plainly: α-Glucosidase enzyme inhibition assay (p-nitrophenyl α-D-glucopyranoside). Particulars: compared with deoxynojirimycin; summary of Tables 1 and 2. The class given is biochemical. As to the method:
as §1, §4, §2, §3
1) α-Glucosidase (Baker's yeast, EC 3.2.1.20) [described in H. Halvorson and L. Ellias, Biochim. Biophys. Acta, 30, 28-40 (1958)]
Into each well were introduced an aqueous solution of a sample (1 μl), a 0.66 mM solution of p-nitrophenyl α-D-glucopyranoside in a buffer (98 μl) and a (0.4 mg/ml) enzyme solution in the buffer (1 μl) to give a total volume of 100 μl. After incubating at 37° C. for 30 minutes, the reaction was ceased by adding a 1M aqueous solution of sodium carbonate (100 μl). Then the absorbance (A405) of p-nitrophenol liberated by this enzyme reaction was measured. To give the blank absorbance (Ablank), the sample (1 μl) and the substrate (99 μl) were incubated in the same manner and an aqueous solution of sodium carbonate (100 μl) was added followed by the measurement of the absorbance. […] The sample at each concentration, the blank and the control were treated each in two wells at the same time. As the buffer, a 0.1M phosphate buffer solution (pH 6.8, prepared from KH2 PO4 and K2 HPO4) was employed.

T2 sequence (P53341 whole entry): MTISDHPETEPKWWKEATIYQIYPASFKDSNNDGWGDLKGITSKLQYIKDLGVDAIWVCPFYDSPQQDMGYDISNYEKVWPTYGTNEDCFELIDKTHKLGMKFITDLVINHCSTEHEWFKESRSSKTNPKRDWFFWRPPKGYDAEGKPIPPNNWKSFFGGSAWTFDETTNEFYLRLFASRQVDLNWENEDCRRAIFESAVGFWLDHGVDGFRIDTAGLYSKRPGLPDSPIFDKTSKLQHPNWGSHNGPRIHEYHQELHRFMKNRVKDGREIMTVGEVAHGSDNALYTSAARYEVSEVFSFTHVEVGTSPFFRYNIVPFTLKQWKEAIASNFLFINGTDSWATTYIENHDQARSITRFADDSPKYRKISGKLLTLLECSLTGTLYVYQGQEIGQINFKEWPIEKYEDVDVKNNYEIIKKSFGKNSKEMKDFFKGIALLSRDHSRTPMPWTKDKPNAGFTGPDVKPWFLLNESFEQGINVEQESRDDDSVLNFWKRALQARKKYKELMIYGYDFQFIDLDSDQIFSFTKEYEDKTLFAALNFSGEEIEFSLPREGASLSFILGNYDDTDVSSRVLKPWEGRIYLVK
T1 sequence (P00722 2-1024 limits assumed): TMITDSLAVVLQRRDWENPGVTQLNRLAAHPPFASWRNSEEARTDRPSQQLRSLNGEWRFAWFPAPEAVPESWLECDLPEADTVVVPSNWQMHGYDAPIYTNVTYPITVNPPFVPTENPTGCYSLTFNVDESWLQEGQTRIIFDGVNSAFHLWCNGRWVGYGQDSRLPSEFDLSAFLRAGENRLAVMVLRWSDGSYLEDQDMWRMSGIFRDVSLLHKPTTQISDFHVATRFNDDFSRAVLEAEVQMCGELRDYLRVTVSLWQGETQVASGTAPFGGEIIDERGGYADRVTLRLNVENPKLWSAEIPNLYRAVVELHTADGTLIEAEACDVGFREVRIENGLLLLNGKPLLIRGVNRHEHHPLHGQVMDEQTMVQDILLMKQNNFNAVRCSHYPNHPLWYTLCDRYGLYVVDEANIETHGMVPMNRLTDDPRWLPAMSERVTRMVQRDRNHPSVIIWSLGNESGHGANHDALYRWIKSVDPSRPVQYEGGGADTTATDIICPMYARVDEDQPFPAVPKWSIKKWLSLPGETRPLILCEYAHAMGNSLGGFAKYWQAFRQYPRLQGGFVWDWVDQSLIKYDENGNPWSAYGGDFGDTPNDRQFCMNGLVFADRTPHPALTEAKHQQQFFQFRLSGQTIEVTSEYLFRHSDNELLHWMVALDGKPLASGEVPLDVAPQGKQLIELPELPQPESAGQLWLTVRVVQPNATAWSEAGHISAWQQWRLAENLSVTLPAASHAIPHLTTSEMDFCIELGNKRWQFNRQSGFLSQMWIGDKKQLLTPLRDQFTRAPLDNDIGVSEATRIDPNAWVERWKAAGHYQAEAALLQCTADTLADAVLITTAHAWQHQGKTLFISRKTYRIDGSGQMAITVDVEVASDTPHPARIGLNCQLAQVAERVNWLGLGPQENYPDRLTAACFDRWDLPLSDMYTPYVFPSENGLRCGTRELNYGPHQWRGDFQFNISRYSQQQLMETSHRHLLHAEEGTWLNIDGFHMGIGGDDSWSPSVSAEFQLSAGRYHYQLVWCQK

What is called IC50 is the concentration that inhibits the measured activity by half. For the compound `OC[C@@]12OC(Nc3ccccc3)=N[C@@H]1[C@H](O)[C@@H](O)[C@@H]2O` [Compound 1-2L, (1S,5R,6S,7R,8S)-1-hydroxymethyl-3-phenylamino-2-oxa-4-azabicyclo[3.3.0]oct-3-ene-6,7,8-triol], the IC50 is > 0.0003 M in data set [1]; > 300 µM in data set [2] (pH 5.0, 37° C., 45 minutes); > 300 µM in data set [3]. For the same compound, the “inhibitory activity against β-glucosidase (in words)” value in data set [2] (summary of Table 1) is given as “weak inhibitory activities”. In addition, the “cytotoxicity (in words)” value with B16 melanoma cells is listed as “no cytotoxicity”. The “inhibitory activity against α-glucosidase (in words)” value in data set [4] is given as “remarkably strong inhibitory activities”.
